Experimental data from US12472171B2, “Methods for treating hypercholesterolemia” (BIOGEN MA INC., priority 2020, dated 2025).

Key:
rat OPCs = assay: Sterol levels (Metabolon HD4) in rat OPC cultures treated with Compound 1; assay type: cell-based; conditions: rat OPC culture
Method: Enriched populations of oligodendrocytes from female Sprague Dawley postnatal day 2 (P2) rats were grown in culture. Briefly, the forebrain was dissected and placed in Hank's buffered salt solution (HBSS) (Life technologies). The tissue was cut into 1 mm fragments and incubated at 37° C. for 15 min in 0.01% trypsin and 10 μg/ml DNase. Dissociated cells were plated on poly-D-lysine (PDL)-coated T75 tissue culture flasks and grown at 37° C. for 10 days in Dulbecco's Modified Eagle Medium (DMEM) with 20% fetal calf serum (Life technologies). Oligodendrocyte precursors (A2B5+) were collected by shaking the flask overnight at 200 rpm at 37° C., resulting in a 95% pure population. Cultures were maintained in a defined growth medium (high glucose DMEM, 0.1% BSA, 50 ug/ml Apo-transferrin, 5 ug/ml insulin, 30 nM sodium selenite, 10 nM biotin and hydrocortisone) with 10 ng/ml fibroblast growth factor/platelet-derived growth factor (FGF/PDGF) (Peprotech) for 2-3 days. For assessing the ability of Compound 1 to promote the differentiation of rat A2B5+ progenitor cells into mature myelin basic protein positive (MBP+) myelinating oligodendrocytes, A2B5+ cells were plated into 10-cm PDL coated culture plates in FGF/PDGF free growth medium supplemented with 10 ng/ml CNTF and 15 nM T3 and were immediately treated for with Compound 1. The cell pellets were collected at 24 hours and 72 hours in culture and stored at −80° C. The cell pellets were subsequently shipped to Metabolon (Morrisville, NC, USA) and maintained at −80° C. during shipping and storage until processed. The cell pellet samples were extracted with methanol under vigorous shaking for 2 min (Glen Mills GenoGrinder 2000) to precipitate protein and dissociate small molecules bound to protein or trapped in the precipitated protein matrix, followed by centrifugation to recover chemically diverse metabolites. The resulting extract were next aliquot and analyzed on Metabolon's HD4 platform. Several types of quality control samples, including recovery standards added prior to extraction, technical replicates from a pool combined from each experimental sample, process and solvent blanks, and spiked a cocktail of QC standards, were applied during sample preparation and analysis for quality assessment and filtering failed samples.

healthy volunteers [1] = assay: 28-day once-daily dosing study in healthy volunteers (Study 1), circulating total cholesterol and oxysterols; assay type: in vivo, human
Method: Forty-two healthy volunteers received Compound 1 QD for 28 days (or before early withdrawal), with 6 individual participants per cohort receiving 1 mg (Cohort 1), 3 mg (Cohort 2), 10 mg (Cohort 3), 30 mg (Cohort 4), 60 mg loading dose with 10 mg maintenance dosing (Cohort 5) Compound 1, 60 mg (Cohort 6), or 90 mg loading dose on Day 1 and Day 2 with 30 mg maintenance dosing (Cohort 7). There were also 14 participants who received placebo in the study; 1 participant in Cohort 4 was misdosed on Day 19 and appeared to have received at least one 30 mg dose of Compound 1. The following protocol deviations were reported for participants in Cohorts 1 through 5: they received predose water ad lib (not restricted for 1 hour before and 1 hour after dose) and a meal administered 30 minutes postdose (not 4 hours postdose). A total of 49 participants completed treatment, including 37 participants who received active treatment.
Participants received the first dose of study treatment (Compound 1 or placebo) on Day 1 and continued to receive once-daily study treatment through Day 28. Participants remained in the clinic throughout the dosing period. Participants were discharged on Day 29 after completing all assessments.
Blood was periodically withdrawn from each volunteer and immediately stored at −80° C. For measuring metabolite concentrations in human serum, the samples were centrifuged and the resulting supernatant was used for further analysis.
Free oxysterols were extracted from the samples with methanol using the Biocrates Kit filter plate. The plate was loaded with an internal standard mixture beforehand. The metabolite concentrations were determined by UHPLC-MS/MS with multiple reaction monitoring (MRM) in a positive mode using a SCIEX API 5500 QTRAP® (AB SCIEX, Darmstadt, German) instrument with electrospray ionization (ESI). Data were quantitated using appropriate mass spectrometry software and imported in Biocrates Met/DQ™ software for further analysis.

healthy volunteers [2] = assay: Population PK/PD model (Monolix) of circulating cholesterol versus Compound 1 plasma concentration, from three phase I studies; set-up: species or system human
Method: FIG. 2 is a bar graph showing predicted steady-state concentrations of circulating cholesterol levels during treatment with Compound 1 for subject administered placebo, 1 mg, 3 mg, 10 mg, 30 mg or 60 mg per day of Compound 1 at pharmacodynamic steady-state. The predicted concentrations are from simulations based on data from three phase I trials of Compound 1.
Based on these observations, a population PK/PD model was developed using Monolix to describe circulating cholesterol concentration as a function of plasma concentration of Compound 1 and exposure. The model was developed from cholesterol data from the study described above (Study 1) as well as two additional clinical studies (Study 2 and Study 3) in healthy volunteers. In Study 2, thirty healthy volunteers received a single oral dose of Compound 1 with 6 individual participants per cohort receiving 3 mg (Cohort 1), 10 mg (Cohort 2), 30 mg (Cohort 3), 60 mg (Cohort 4), 100 mg (Cohort 5). There were also 9 participants who received placebo in the study. In Study 3, 8 healthy adult volunteers received a single dose of 30 mg of Compound 1.

steady-state concentration of Compound 1 (healthy volunteers [2]; daily dose of 60 mg): about 3 μg/mL
time of increase to steady-state concentrations of Compound 1 in plasma (healthy volunteers [2]; daily dosing, cholesterol reduction predicted over the same time frame): approximately 15 days
SMILES: CC[C@H]1CC[C@@H](Oc2ccc3cc(CN4CCC(C(=O)O)CC4)ccc3c2)CC1 [Compound 1, 1-((6-(((1s,4s)-4-ethylcyclohexyl)oxy)naphthalen-2-yl)methyl)piperidine-4-carboxylic acid]
7-DHC versus vehicle control (rat OPCs; 24 hours): 8.3 folds
cholesterol versus vehicle control (rat OPCs; 24 hours): 0.64 folds
desmosterol versus vehicle control (rat OPCs; 24 hours): 0.44 folds
7-DHC versus vehicle control (rat OPCs; 72 hours): 12.86 folds
cholesterol versus vehicle control (rat OPCs; 72 hours): insignificant change
desmosterol versus vehicle control (rat OPCs; 72 hours): 0.4 folds
accumulation of 7-dehydrocholesterol (7-DHC) (healthy volunteers [1]; healthy human volunteers): causes accumulation of 7-dehydrocholesterol (7-DHC)
average decrease in total cholesterol (healthy volunteers [1]; healthy volunteers, 60 mg dose, Study 1): approximately 20%
reduction in total circulating cholesterol (healthy volunteers [1]; healthy volunteers, QD for 28 days, FIG. 1): gradual, time- and dose-dependent reduction in total circulating cholesterol
model-predicted decrease of circulating cholesterol (healthy volunteers [2]; 60 mg QD, steady state): approximately 35%
predicted time for circulating cholesterol to return to baseline after discontinuation (healthy volunteers [2]; after discontinuation of treatment): ≤ 30 days
EC50 for reduction in circulating cholesterol concentration (healthy volunteers [2]; plasma concentration of Compound 1, population PK/PD model): about 3 μg/mL
circulating cholesterol concentration in the model by daily dose (healthy volunteers [2]; population PK/PD model): reduced at all daily doses higher than 10 mg
